Source: ChEMBL document CHEMBL3885861, “Open TG-GATES”

Organism: Rattus norvegicus
Experiment: Open TG-GATES - Regimen: Single
Type: toxicity, organism-based, Sprague-Dawley
Parameters: regimen Single, gender Male, age 6 weeks
Settings: in vivo, ip, 0.1 mg/kg, route intraperitoneal injection, dose 100 ug/Kg, dose level Middle; for APTT / Bas / Eos / Fbg / Hb / Ht / Lym / MCH / MCHC / MCV / Mono / Neu / PT / Plat / RBC / Ret / WBC: tissue Blood; for KIDNEY_L / KIDNEY_R / KIDNEY_TOTAL: tissue Kidney; for LIVER: tissue Liver; for A/G / ALP / ALT / AST / BUN / CRE / Ca / Cl / DBIL / GLC / IP / K / LDH / Na / PL / RALB / TBIL / TC / TG / TP / gamma-GTP: tissue Plasma

CC(=O)N[C@H]1[C@@H](O[C@@H]2O[C@H](CC(O)[C@H]3O[C@@H](n4ccc(=O)[nH]c4=O)[C@H](O)[C@@H]3O)[C@H](O)[C@H](O)[C@H]2NC(=O)/C=C/CC(C)C)O[C@H](CO)[C@@H](N)[C@@H]1O (some centres not stated) [TUNICAMYCIN]
TERMINAL_BW (3 h): 221.2 g
APTT (3 h): 23.1 s
Bas (3 h): 0%
Eos (3 h): 0.6%
Fbg (3 h): 292.6 mg/dL
Hb (3 h): 12.8 g/dL
Ht (3 h): 39.3%
Lym (3 h): 71.2%
MCH (3 h): 20.2 pg
MCHC (3 h): 32.6%
MCV (3 h): 62 fL
Mono (3 h): 3.2%
Neu (3 h): 24.2%
PT (3 h): 15.9 s
Plat (3 h): 122.6 x10_4/uL
RBC (3 h): 636.4 x10_4/ul
Ret (3 h): 8.1%
WBC (3 h): 97.2 x10_2/uL
KIDNEY_L (3 h): 0.9 g
KIDNEY_R (3 h): 0.9 g
KIDNEY_TOTAL (3 h): 1.9 g
LIVER (3 h): 10.4 g
A/G (3 h): 1.2
ALP (3 h): 1559 IU/L
ALT (3 h): 38.8 IU/L
AST (3 h): 76.8 IU/L
BUN (3 h): 13 mg/dL
CRE (3 h): 0.2 mg/dL
Ca (3 h): 10.6 mg/dL
Cl (3 h): 106.8 meq/L
DBIL (3 h): 0 mg/dL
GLC (3 h): 167.2 mg/dL
IP (3 h): 8.2 mg/dL
K (3 h): 4.2 meq/L
LDH (3 h): 158.2 IU/L
Na (3 h): 142.8 meq/L
PL (3 h): 122.8 mg/dL
RALB (3 h): 2.9 g/dL
TBIL (3 h): 0.012 mg/dL
TC (3 h): 70.4 mg/dL
TG (3 h): 70.2 mg/dL
TP (3 h): 5.3 g/dL
gamma-GTP (3 h): 1.4 IU/L
TERMINAL_BW (6 h): 216.8 g
APTT (6 h): 22.4 s
Bas (6 h): 0%
Eos (6 h): 0.4%
Fbg (6 h): 315.6 mg/dL
Hb (6 h): 13.2 g/dL
Ht (6 h): 40.1%
Lym (6 h): 67%
MCH (6 h): 21 pg
MCHC (6 h): 33%
MCV (6 h): 63.7 fL
Mono (6 h): 2%
Neu (6 h): 30%
PT (6 h): 15.7 s
Plat (6 h): 110 x10_4/uL
RBC (6 h): 630.4 x10_4/ul
Ret (6 h): 7.9%
WBC (6 h): 95.8 x10_2/uL
KIDNEY_L (6 h): 1 g
KIDNEY_R (6 h): 1 g
KIDNEY_TOTAL (6 h): 1.9 g
LIVER (6 h): 9.2 g
A/G (6 h): 1.2
ALP (6 h): 1277.4 IU/L
ALT (6 h): 39.8 IU/L
AST (6 h): 70.4 IU/L
BUN (6 h): 11 mg/dL
CRE (6 h): 0.2 mg/dL
Ca (6 h): 10.8 mg/dL
Cl (6 h): 106.2 meq/L
DBIL (6 h): 0 mg/dL
GLC (6 h): 175 mg/dL
IP (6 h): 9.3 mg/dL
K (6 h): 4.2 meq/L
LDH (6 h): 161.6 IU/L
Na (6 h): 141.4 meq/L
PL (6 h): 127.2 mg/dL
RALB (6 h): 3 g/dL
TBIL (6 h): 0.022 mg/dL
TC (6 h): 74 mg/dL
TG (6 h): 51.8 mg/dL
TP (6 h): 5.3 g/dL
gamma-GTP (6 h): 1.2 IU/L
TERMINAL_BW (9 h): 221.7 g
APTT (9 h): 23.2 s
Bas (9 h): 0%
Eos (9 h): 1%
Fbg (9 h): 305.8 mg/dL
Hb (9 h): 12.9 g/dL
Ht (9 h): 39.8%
Lym (9 h): 81%
MCH (9 h): 20.7 pg
MCHC (9 h): 32.4%
MCV (9 h): 64 fL
Mono (9 h): 2.2%
Neu (9 h): 15.4%
PT (9 h): 15.8 s
Plat (9 h): 123.1 x10_4/uL
RBC (9 h): 623 x10_4/ul
Ret (9 h): 7.8%
WBC (9 h): 86.6 x10_2/uL
KIDNEY_L (9 h): 0.9 g
KIDNEY_R (9 h): 1 g
KIDNEY_TOTAL (9 h): 1.9 g
LIVER (9 h): 9.2 g
A/G (9 h): 1.2
ALP (9 h): 1517.2 IU/L
ALT (9 h): 35.6 IU/L
AST (9 h): 71 IU/L
BUN (9 h): 12.4 mg/dL
CRE (9 h): 0.1 mg/dL
Ca (9 h): 10.9 mg/dL
Cl (9 h): 106.2 meq/L
DBIL (9 h): 0 mg/dL
GLC (9 h): 173.6 mg/dL
IP (9 h): 9.2 mg/dL
K (9 h): 4.2 meq/L
LDH (9 h): 137.4 IU/L
Na (9 h): 141.8 meq/L
PL (9 h): 124.8 mg/dL
RALB (9 h): 2.9 g/dL
TBIL (9 h): 0.014 mg/dL
TC (9 h): 70.2 mg/dL
TG (9 h): 76 mg/dL
TP (9 h): 5.3 g/dL
gamma-GTP (9 h): 1 IU/L
TERMINAL_BW (24 h): 228.5 g
APTT (24 h): 22.4 s
Bas (24 h): 0%
Eos (24 h): 0.8%
Fbg (24 h): 332.8 mg/dL
Hb (24 h): 13.3 g/dL
Ht (24 h): 41.4%
Lym (24 h): 80.6%
MCH (24 h): 19.9 pg
MCHC (24 h): 32%
MCV (24 h): 62 fL
Mono (24 h): 2.6%
Neu (24 h): 15.2%
PT (24 h): 15.8 s
Plat (24 h): 105.4 x10_4/uL
RBC (24 h): 668 x10_4/ul
Ret (24 h): 7.2%
WBC (24 h): 84.3 x10_2/uL
KIDNEY_L (24 h): 0.9 g
KIDNEY_R (24 h): 1 g
KIDNEY_TOTAL (24 h): 1.9 g
LIVER (24 h): 10.2 g
A/G (24 h): 1.2
ALP (24 h): 1529.6 IU/L
ALT (24 h): 46.2 IU/L
AST (24 h): 74.2 IU/L
BUN (24 h): 15.2 mg/dL
CRE (24 h): 0.1 mg/dL
Ca (24 h): 10.5 mg/dL
Cl (24 h): 105.4 meq/L
DBIL (24 h): 0 mg/dL
GLC (24 h): 181 mg/dL
IP (24 h): 7.3 mg/dL
K (24 h): 4.2 meq/L
LDH (24 h): 152.8 IU/L
Na (24 h): 142 meq/L
PL (24 h): 143.8 mg/dL
RALB (24 h): 3.1 g/dL
TBIL (24 h): 0.014 mg/dL
TC (24 h): 77.6 mg/dL
TG (24 h): 78.2 mg/dL
TP (24 h): 5.6 g/dL
gamma-GTP (24 h): 1.4 IU/L
